Source: the NIST ThermoML archive (doi:10.1016/j.fluid.2019.05.020)
Numbers after ± are expanded uncertainties.

How the values were obtained:
[1] = for Normal melting temperature: Crystal, DTA
[2] = Molar enthalpy of transition or fusion; conditions: Crystal; DSC

Row | Normal melting temperature [1] [°C] | Molar enthalpy of transition or fusion [2] [kcal/mol] | Triple point temperature ([1]; Crystal 2, DSC) [K] | Compound
1 | 32.07 ± 0.49 | 6.25 ± 0.287 | – | CCCCCCCCCC(=O)O [decanoic acid]
2 | 55.90 ± 0.73 | 9.92 ± 1.63 | – | CCCCCCCCCCCCCC(=O)O [tetradecanoic acid]
3 | 6.69 ± 0.55 | 7.06 ± 0.932 | 275.64 ± 4.1 | CCCCCCCCCCO [decan-1-ol]
4 | 24.63 ± 0.39 | 7.53 ± 2.13 | – | CCCCCCCCCCCCO [dodecan-1-ol]
5 | 64.02 ± 0.55 | 11.7 ± 0.645 | – | CCCCCCCCCCCCCCCC(=O)O [hexadecanoic acid]
6 | 70.48 ± 0.49 | 13.4 ± 1.12 | – | CCCCCCCCCCCCCCCCCC(=O)O [octadecanoic acid]
7 | 45.4 ± 0.65 | 7.99 ± 0.621 | – | CCCCCCCCCCCC(=O)O [dodecanoic acid]
8 | 66.29 ± 0.65 | 38.3 ± 2.1 | – | CCCCCCCCCCCCCCCC(=O)OCC(COC(=O)CCCCCCCCCCCCCCC)OC(=O)CCCCCCCCCCCCCCC [1,2,3-propanetriyl tri(hexadecanoate)]
9 | 37.56 ± 0.91 | 10.4 ± 1.24 | – | CCCCCCCCCCCCCCO [1-tetradecanol]
